What was measured:
[1] = test system: KK-Ay mice; assay: Test Example 3: amount of livestock feed taken by hyperphagia model mice; assay type: in vivo
Method: The object of this test was to confirm that the casein hydrolysate according to the present invention has a therapeutic effect against the hyperphagia.
The product according to the present invention: The casein hydrolysate according to the present invention, prepared by the method described in EXAMPLE 1, was diluted with the distilled water so that the concentration of the hydrolysate would be 5 mg/ml.
The precipitate fraction: Sample 2 in the Test Example 1 was diluted with the distilled water into 5 mg/ml.
Whole casein hydrolysate: The rennet casein (Fonterra Co-operative Group Limited, protein content 80%) used in EXAMPLE 1 was digested with pepsin in the same way as in EXAMPLE 1, and then, without centrifuging, diluted with the distilled water for injection so that the concentration of the hydrolysate would be 5 mg/ml.
GMP (glycol-macropeptide): A commercially available GMP (MG Nutritionals) was diluted with the distilled water for injection so that the concentration of GMP would be 5 mg/ml. […]
After pre-feeding with said livestock feed for 10 days, test animals were divided into 8 groups each including 8 animals so that they would have the nearly equal body weight and take the nearly equal amount of livestock feed. […] The amount of livestock feed taken by the animal was determined once a week. […]

[2] = test system: KK-Ay mice; assay: Test Example 4: blood glucose level of hyperphagia model mice; assay type: in vivo
Excerpt: The object of this test was to confirm that the casein hydrolysate according to the present invention has an effect of decreasing the blood glucose level of the patient with hyperphagia.
The same one as in EXAMPLE 3 was used.
A commercially available livestock feed containing no protein from milk (Nihon Nosan, trade name: MR Stock) was used. As drinking water, tap water (city water) was used.
As animal model for hyperphagia, KK-Ay mice (male, 5 weeks old, CLEA Japan, Inc.) were used.
After pre-feeding with said livestock feed for 10 days, test animals were divided into 8 groups each including 8 animals so that they would have the nearly equal body weight and take the nearly equal amount of livestock feed. The animals of each group could take the livestock feed and water freely. During 5 days of one week, 0.5 ml of the sample was administered to each animal per day using a sonde. The test was performed for 5 weeks. The blood glucose level was determined once a week, using a glucose kit for self checking (Johnson & Johnson).
Relative blood glucose level is an average blood glucose level of each group when the average blood glucose level of the control group is considered 1.

[3] = 5 mg/ml, 0.5 ml per day, 5 weeks after starting of administration

Substance: κ-casein: commercially available κ-casein (Sigma)
- change of amount of livestock feed taken compared to the control [1, 3]: wasn't a significant effect
- Relative amount of livestock feed ingested 5 weeks later ([1]; 0.5 ml of 5 mg/ml sample per day by sonde, 5 days of one week, 5 weeks, control group = 1, * p < 0.05): 0.990
- change of blood glucose level compared to the control [2, 3]: wasn't a significant effect
- Relative blood glucose level 5 weeks later ([2]; Table 3 (text: relative blood glucose level), 0.5 ml of 5 mg/ml sample per day, 5 days of one week, 5 weeks, control group = 1, * p < 0.05): 0.934

Source: US20120322726A1, “THERAPEUTIC AGENT FOR EATING DISORDERS” (MORINAGA MILK INDUSTRY CO., LTD., priority 2010, published 2012)
